Each structure is given as a SMILES string.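 Method: 48-hour compound exposure of cells in 96-well plates, five concentrations, linear interpolation of endpoints. GI50 is the concentration that inhibits growth by half.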 The source made the active and inactive calls. Cut-off read from the data, not from the text of the source: active = GI50 up to about 1.1 µM and inactive = higher.

Test systems include SK-MEL-5; CAKI-1; SK-MEL-2; SK-OV-3; A498; CCRF-CEM; SF-268; ACHN; Malme-3M; M14; A549; HOP-92; OVCAR-3; LOX IMVI; HOP-62; UO-31; SK-MEL-28; SR.
Common to all, as to test: DTP human tumour cell line panel, 48 h

A word on the GI50: it is the concentration that inhibits growth by half. With `CCOC(=O)c1ccc(/N=C\c2ccc(N(CCC#N)CCC#N)cc2)cc1`, the GI50 is 78.3 µM (inactive) in the assay with SK-MEL-5; > 100 µM (inactive) in the assay on CAKI-1; > 100 µM (inactive) in the assay on SK-MEL-2; > 100 µM (inactive) with SK-OV-3; > 100 µM (inactive) in the assay on A498; 46.9 µM (inactive) with CCRF-CEM. Also, the GI50 was 84.7 µM (inactive) with SF-268; 43.2 µM (inactive) with ACHN; > 100 µM (inactive) in the assay with Malme-3M; 36.5 µM (inactive) with M14; 70 µM (inactive) with A549; > 100 µM (inactive) with HOP-92. Moreover, the GI50 in the assay on OVCAR-3 was > 100 µM (inactive); in the assay on LOX IMVI, 44.2 µM (inactive); in the assay with HOP-62 it was 40.5 µM (inactive); with UO-31 it was 27.2 µM (inactive); in the assay on SK-MEL-28 it was > 100 µM (inactive).
For the compound `Cc1cc(NS(=O)(=O)c2ccc(Nc3c4ccccc4nc4c(C(=O)NCCN(C)C)ccc(Cl)c34)cc2)no1`, the GI50 is 2 µM (inactive) in the assay with SK-MEL-5; 6.1 µM (inactive) in the assay with SK-MEL-2; 1.28 µM (inactive) in the assay on CCRF-CEM; 2.15 µM (inactive) in the assay on SF-268; 2.43 µM (inactive) with ACHN; 0.37 µM (active) in the assay with SR. Besides, the GI50 in the assay with M14 is 5.25 µM (inactive); with A549 it was 3.66 µM (inactive); with OVCAR-3, 11.7 µM (inactive); in the assay on LOX IMVI, 1.48 µM (inactive); in the assay with HOP-62, 4.57 µM (inactive); with UO-31 it was 3.23 µM (inactive). In addition, the GI50 with SK-MEL-28 was 4.41 µM (inactive).
As to `Cc1cc(OC(=O)c2c(C)cc(OC(=O)c3c(C)cc(O)cc3O)cc2O)cc(O)c1C(=O)O` [GYROPHORIC ACID], the GI50 in the assay with SK-MEL-5, with CAKI-1, with SK-MEL-2, in the assay on SK-OV-3, with A498 and in the assay on CCRF-CEM was > 100 µM (inactive) each time. Further, the GI50 in the assay with SF-268 was > 100 µM (inactive); in the assay on ACHN, > 100 µM (inactive); in the assay on Malme-3M, > 100 µM (inactive); with M14 it was > 100 µM (inactive); with A549 it was > 100 µM (inactive); in the assay with HOP-92, 69.5 µM (inactive). The GI50 with OVCAR-3 was > 100 µM (inactive); with LOX IMVI, > 100 µM (inactive); with HOP-62 it was > 100 µM (inactive); with UO-31 it was 76.4 µM (inactive); with SK-MEL-28, > 100 µM (inactive).
On to `CC1(C)CC(C2CC(C)(C)CC(C)(C)[C@H]2O)[C@@H](O)C(C)(C)C1` (stereo partly drawn), for which the GI50 in the assay with SK-MEL-5, with SK-OV-3, in the assay on CCRF-CEM, with SF-268, in the assay with ACHN and in the assay with SR was > 100 µM (inactive) in each case. Also, the GI50 was > 100 µM (inactive) with Malme-3M; > 100 µM (inactive) with M14; > 100 µM (inactive) in the assay on A549; > 100 µM (inactive) in the assay on OVCAR-3; > 100 µM (inactive) in the assay on LOX IMVI; > 10 µM (inactive) in the assay on HOP-62. Further, the GI50 in the assay on UO-31 and in the assay on SK-MEL-28 was > 100 µM (inactive) in each case.
`CC(=O)OCC1OC(n2c(=O)n(-c3ccccc3)c(=O)c3ccccc32)C(OC(C)=O)C(OC(C)=O)C1OC(C)=O` (stereo not drawn): the GI50 in the assay with SK-MEL-5 was > 100 µM (inactive); in the assay on CAKI-1 it was > 100 µM (inactive); in the assay on SK-MEL-2, > 100 µM (inactive); in the assay on SK-OV-3, > 100 µM (inactive); in the assay on A498 it was > 100 µM (inactive); in the assay on CCRF-CEM, 53.7 µM (inactive). The GI50 with SF-268, with ACHN, in the assay on Malme-3M, with M14, in the assay on A549 and with HOP-92 was > 100 µM (inactive) each time. For the same compound, the GI50 with OVCAR-3, in the assay on LOX IMVI, with HOP-62, in the assay on UO-31 and in the assay on SK-MEL-28 was > 100 µM (inactive) each time.
Take `O=C(O[C@H]1[C@@H]2C=CO[C@@H](OC3OC(CO)C(O)C(O)C3O)[C@@H]2[C@@]2(CO)O[C@@H]12)c1ccc(O)c(O)c1` (stereo partly drawn): the GI50 with SK-MEL-5, with CAKI-1, in the assay on SK-MEL-2, in the assay on SK-OV-3, in the assay on A498 and in the assay on CCRF-CEM was > 100 µM (inactive) throughout. Also, the GI50 in the assay with SF-268, in the assay on ACHN, in the assay on Malme-3M, with M14, in the assay on A549 and with HOP-92 was > 100 µM (inactive) each time. In addition, the GI50 with OVCAR-3, with LOX IMVI, with HOP-62, with UO-31 and in the assay on SK-MEL-28 was > 100 µM (inactive) in each case.
`NC(Cc1ccccc1)C(=O)OCN1C(=O)C2C3C=CC(C2C1=O)C1C2C(=O)N(COC(=O)C(N)Cc4ccccc4)C(=O)C2C31` (stereo not drawn): the GI50 in the assay on SK-MEL-5 was 18.3 µM (inactive); in the assay with SK-OV-3 it was 50.2 µM (inactive); in the assay with CCRF-CEM it was 21.1 µM (inactive); in the assay on SF-268 it was 25.9 µM (inactive); with ACHN it was 23.1 µM (inactive); in the assay on SR, 27.7 µM (inactive). Also, the GI50 in the assay with M14 was 20.4 µM (inactive); in the assay on A549 it was 25.9 µM (inactive); in the assay on HOP-92, 32 µM (inactive); in the assay with OVCAR-3, 33 µM (inactive); with LOX IMVI, 21.4 µM (inactive); with HOP-62, > 100 µM (inactive). The GI50 in the assay with SK-MEL-28 was 22.9 µM (inactive).
Regarding `CCOc1ccc(NC(=O)C(=O)CC(=O)C2=C(C)Nc3ccccc3S2)cc1`, the GI50 with SK-MEL-5, with CAKI-1, with SK-MEL-2, with SK-OV-3, with A498 and in the assay on CCRF-CEM was > 50 µM (inactive) each time. Further, the GI50 in the assay on SF-268, in the assay with ACHN, with Malme-3M, in the assay on M14, with A549 and in the assay with HOP-92 was > 50 µM (inactive) throughout. The GI50 with OVCAR-3, in the assay with LOX IMVI, with HOP-62, with UO-31 and with SK-MEL-28 was > 50 µM (inactive) each time.
Regarding `Cc1nc(Nc2ccccc2)sc1C(=O)CC(=O)C(=O)Nc1c(C(C)C)cccc1C(C)C`, the GI50 with SK-MEL-5 was > 100 µM (inactive); with CAKI-1, 66.2 µM (inactive); with SK-MEL-2, > 100 µM (inactive); in the assay on SK-OV-3 it was > 100 µM (inactive); in the assay with CCRF-CEM, 89.7 µM (inactive); with SF-268 it was > 100 µM (inactive). For the same compound, the GI50 was 95.1 µM (inactive) in the assay on ACHN; 20.6 µM (inactive) in the assay with SR; > 100 µM (inactive) in the assay with Malme-3M; > 100 µM (inactive) with M14; > 100 µM (inactive) in the assay with A549; 32.6 µM (inactive) in the assay on HOP-92. Also, the GI50 is 97.9 µM (inactive) in the assay on OVCAR-3; 43.2 µM (inactive) in the assay on LOX IMVI; 97.7 µM (inactive) in the assay on HOP-62; 78.5 µM (inactive) in the assay with UO-31; > 100 µM (inactive) in the assay with SK-MEL-28.
On to `CC1=C(/C(C)=N/NC(=O)c2ccccc2O)C(C)C(/C(C)=N/NC(=O)c2ccccc2O)=C(C)N1`, for which the GI50 is 19.8 µM (inactive) with SK-MEL-5; 28.1 µM (inactive) with CAKI-1; 38.1 µM (inactive) in the assay with SK-OV-3; 27.8 µM (inactive) with A498; 25.6 µM (inactive) in the assay with SF-268; 16.3 µM (inactive) with ACHN. Moreover, the GI50 in the assay with SR is 23.8 µM (inactive); with Malme-3M it was 29.4 µM (inactive); with M14, 30.2 µM (inactive); with A549 it was 21.5 µM (inactive); with HOP-92, 28.8 µM (inactive); with OVCAR-3 it was 12.2 µM (inactive). Besides, the GI50 with LOX IMVI is 18.3 µM (inactive); in the assay with HOP-62 it was 25.1 µM (inactive); in the assay with UO-31 it was 15.5 µM (inactive); in the assay with SK-MEL-28, 21.8 µM (inactive).
Take `O=C1[C@H]2ON(c3ccccc3)C(c3ccccc3F)[C@H]2C(=O)N1c1ccc(Cc2ccc(N3C(=O)[C@@H]4ON(c5ccccc5)C(c5ccccc5F)[C@@H]4C3=O)cc2)cc1` (stereo partly drawn): the GI50 with SK-MEL-5, in the assay with CAKI-1, in the assay on SK-MEL-2, in the assay on SK-OV-3, in the assay with A498 and with CCRF-CEM was > 100 µM (inactive) each time. For the same compound, the GI50 was > 100 µM (inactive) in the assay on SF-268; > 100 µM (inactive) in the assay on ACHN; > 100 µM (inactive) in the assay with Malme-3M; 34.8 µM (inactive) with M14; > 100 µM (inactive) in the assay on A549; 21.5 µM (inactive) with HOP-92. Besides, the GI50 is > 100 µM (inactive) with OVCAR-3; 63.8 µM (inactive) with LOX IMVI; > 100 µM (inactive) in the assay with HOP-62; > 100 µM (inactive) in the assay on UO-31; > 100 µM (inactive) with SK-MEL-28.
On to `CC(=O)OC1C=CC2CCN3C(=O)c4cc5c(cc4[C@H]1C23)OCO5` (stereo partly drawn), for which the GI50 with SK-OV-3, in the assay on CCRF-CEM, with SF-268, with ACHN, in the assay on SR and in the assay with Malme-3M was > 100 µM (inactive) throughout. Further, the GI50 in the assay with M14, with A549, in the assay on OVCAR-3, in the assay on LOX IMVI, with HOP-62 and with UO-31 was > 100 µM (inactive) throughout. Further, in the assay with SK-MEL-28, the GI50 is > 100 µM (inactive).

The values above are taken from ChEMBL document CHEMBL1201862, “PubChem BioAssay data set” (2004).
